Laboratory results published in patent US6656906B1, “Hybrid polypeptides with enhanced pharmacokinetic properties” (Trimeris, Inc., priority 1998, dated 2003).
Like-named read-outs stand apart in the source and are kept apart here. No end group written: not given here.

Columns and labels:
FIG.5 = conditions: for half-life: CD, rat, plasma, iv, read-out: T1/2β (converted)
From the text: Table printed on a drawing sheet, FIG.5
The patent's description of the figure: FIG. 5.
First reader's note: The table is printed under a plasma concentration-time plot of the same two peptides, which is not copied.

[1] = Rat pharmacokinetic studies, IV, fluorescence HPLC of plasma; type: in vivo, CD rats; conditions: for half-life relative to core peptide T786 / half-life relative to core peptide T1476: CD rats
Procedure: 250-300 g male CD rats, double jugular catheter, obtained from Charles River Laboratories were used. Peptides were injected in one jugular catheter in a volume of 200 μl of peptide solution (approximately 3.75 mg/ml), dosing solution concentration was determined using the Edelhoch method, (Edelhoch, 1967, Biochemistry 6:1948-1954) method and adjusted based on animal weight such that each animal received a dose of 2.5 mg/kg). Approximately 250-300 μl of blood was removed at predetermined time intervals (0, 15, 30 min and 1, 2, 4, 6, and 8 hours) and added to EDTA capiject tubes. Plasma was removed from pelleted cells upon centrifugation and either frozen or immediately processed for fluorescence HPLC analysis.
100 μl of sample plasma was added to 900 μl of precipitation buffer (acetonitrile, 1.0% TFA, detergent) resulting in precipitation of the majority of plasma proteins. Following centrifugation at 10,000 rpm for 10 min, 400 μl of the supernatant was removed and added to 600 μl of HPLC grade water. Serial dilutions were performed as dictated by concentration of peptide present in each sample in dilution buffer comprised of 40% precipitation buffer and 60% HPLC water. In addition to sample dilutions, serial dilutions of dosing solution were performed in buffer as well as in plasma and used to generate a standard curve relating peak area to known concentration of peptide. This curve was then used to calculate concentration of peptide in plasma taking into account all dilutions performed and quantity injected onto column.

RSV = assay: Respiratory syncytial virus plaque reduction assay (Hep2 cells); type: cell-based
Procedure: All necessary dilutions of peptides were performed in clean, sterile 96-well TC plate. A total of eleven dilutions for each peptide and one control well containing no peptide were assembled. The final concentration range of peptide started at 50 μg/ml or 100 μg/ml, with a total of eleven two-fold dilutions. The RSV was prepared at a concentration of 100PFU/well in 100 μl 3% EMEM, as determined by a known titer of RSV. The virus is then added to all of the wells.
The media was removed from one sub-confluent 96-well plate of Hep2 cells. The material from the dilution plate was transferred onto the cell plates starting with row 1 and then transferring row 12, row 11, etc. until all rows were transferred. Plates were placed back into the incubator for 48 hours.
The cells were checked to ensure that syncytia were present in the control wells. Media was removed and approximately 50 μls of 0.25% Crystal Violet in methanol was added to each well. The wells were rinsed immediately in water to remove excess stain and allowed to dry. Using a dissecting microscope, the number of syncytia in each well was counted.

HIV-1 [2] = tested on: HIV-1
[3] = target: M41Δ178 (a truncated gp41 ectodomain fusion protein lacking the T20 amino acid sequence)
HIV-2 NIHZ = assay: virus mediated cell-cell fusion assay (chronically infected CEM cells mixed with uninfected Molt-4 cells); type: cell-based
SIV isolate B670 = assay: Magi-CCR-5 infectivity assay; type: cell-based
HIV-1 [4] = assay: Human PBMC infectivity/neutralization assay; type: cell-based
Procedure: The prototypic assay used cell lines where the primary isolate assay utilizes PBMC, obtained through Interstate Blood Bank, activated for 2-3 days with a combination of OKT3 (0.5 μg/ml) and CD28 antibodies (0.1 μg/ml). The target cells were banded on lymphocyte separation medium (LSM), washed, and frozen. Cells were thawed as required and activated as indicated above a minimum of 2-3 days prior to assay. In this 96-well format assay, cells were at a concentration of 2×10^6/ml in 5% IL-2 medium and a final volume of 100 μl. Peptide stock solutions were made in DPBS (1 mg/ml). Peptide dilutions were performed in 20% FBS RPM1 1640/5% IL-2 complete medium.

HIV-1 9320 = assay: In vivo HuPBMC-SCID mouse model of HIV-1 9320 infection; design: species or system SCID mice; conditions: 67 mg/kg total daily dose, IP, bid, 8 days
Procedure: Female SCID mice (5-7 weeks old) received 5-10×10^7 adult human PBMC injected intraperitoneally. Two weeks after reconstitution, mice were infected IP on day 0 with 10^3 TCID50 HIV-1 9320 (AZT-sensitive isolate A018). Treatment with peptides was IP, bid, beginning day −1 and continuing through day 6. The extent of infection in blood cells, splenocytes, lymph nodes, and peritoneal cells was assayed by quantitative co-culture with human PBMC blasts weekly for three consecutive weeks following animal exsanguinations and tissue harvest (day 7, approximately 12-18 hours following the last drug treatment). Co-culture supernatants were evaluated for HIV-1 p24 antigen production as a measure of virus infection (Immunotek Coulter kits and protocol).
Two weeks after reconstitution with HuPBMCs, mice were infected IP on day 0 with 10^3 TCID50 HIV-1 9320 passed in PBMCs (AZT-sensitive isolate A018). […] The extent of infection in blood cells, splenocytes, lymph nodes, and peritoneal cells was assayed by quantitative co-culture with human PBMC blasts weekly for three consecutive weeks following animal exsanguinations and tissue harvest (day 7, approx. 12 to 18 hours following last drug treatment). Co-culture supernatants were evaluated for HIV-1 p24 antigen production as a measure of virus infection.

HIV-1 [5] = tested on: HIV-1; remark: listed apart in the source
[6] = target: M41Δ178 (a truncated gp41 ectodomain fusion protein lacking the T20 amino acid sequence); remark: listed apart in the source

enfuvirtide [listing 1 of 2 here]
half-life (FIG.5): 1.6 h

Ac-WQAWDEYDASISQVNEKINQALAYIREADELWAWF-NH2 [T1302]
half-life relative to core peptide T786 [1]: greatly enhanced half-life
half-life relative to core peptide T1476 [1]: greatly enhanced half-life
ability to inhibit RSV infection (plaque formation of HEp2 cells) (RSV): inhibit RSV infection

WMEWDREINKYTSLIHSLIEESQNQQEKNEQELL [DP397]
inhibition of HIV-1 infection compared to T1249 (HIV-1 [2]; DH012-649 strain, at higher concentrations): increased inhibition of HIV-1 infection
inhibition of HIV-1 infection compared to T1249 (HIV-1 [2]; RF-649 strain): increased inhibition of HIV-1 infection
inhibition of HIV-1 infection compared to T649 (HIV-1 [2]; T649 resistant strains RF-649, DH012-649, 3′ETVQQQ, SIM-649): markedly increased inhibition of HIV-1 infection

Ac-WQEWDEYDASISQVNEKINQALAYIREADELWAWF-NH2 [T1301, Ac-WQEWDEYDASISQVNEKINOALAYIREADELWA WF-NH2]
half-life relative to core peptide T786 [1]: greatly enhanced half-life
half-life relative to core peptide T1476 [1]: greatly enhanced half-life
ability to inhibit RSV infection (plaque formation of HEp2 cells) (RSV): inhibit RSV infection

CC[C@H](C)[C@H](NC(=O)[C@H](CCC(N)=O)NC(=O)[C@H](C)NC(=O)[C@H](CCC(N)=O)NC(=O)[C@H](CCC(=O)O)NC(=O)[C@H](CC(C)C)NC(=O)[C@H](CC(C)C)NC(=O)[C@H](C)NC(=O)[C@@H](NC(=O)[C@@H](NC(=O)[C@H](CCCCN)NC(=O)[C@H](CCC(N)=O)NC(=O)[C@H](CCC(=O)O)NC(=O)[C@H](Cc1c[nH]c2ccccc12)NC(=O)[C@H](CCC(=O)O)NC(=O)[C@H](CCC(N)=O)NC(=O)[C@H](Cc1c[nH]c2ccccc12)NC(C)=O)[C@@H](C)CC)[C@@H](C)O)C(=O)N[C@@H](CCC(N)=O)C(=O)N[C@@H](CCC(N)=O)C(=O)N[C@@H](CCC(=O)O)C(=O)N[C@@H](CCCCN)C(=O)N[C@@H](CC(N)=O)C(=O)N[C@@H](CCC(=O)O)C(=O)N[C@@H](Cc1ccc(O)cc1)C(=O)N[C@@H](CCC(=O)O)C(=O)N[C@@H](CC(C)C)C(=O)N[C@@H](CCC(N)=O)C(=O)N[C@@H](CCCCN)C(=O)N[C@@H](CC(C)C)C(=O)N[C@@H](CC(=O)O)C(=O)N[C@@H](CCCCN)C(=O)N[C@@H](Cc1c[nH]c2ccccc12)C(=O)N[C@@H](C)C(=O)N[C@@H](CO)C(=O)N[C@@H](CC(C)C)C(=O)N[C@@H](Cc1c[nH]c2ccccc12)C(=O)N[C@@H](CCC(=O)O)C(=O)N[C@@H](Cc1c[nH]c2ccccc12)C(=O)N[C@@H](Cc1ccccc1)C(N)=O [T1249A1]
AUC[0-8] (FIG.5): 71.43 µg/h/mL
half-life (FIG.5): 4.71 h

Ac-WQAWDEYDASISDVNEKINQALAYIREADELWEWF-NH2 [T1303, RSV hybrid polypeptide]
half-life relative to core peptide T1476 [1]: greatly enhanced half-life
ability to inhibit RSV infection (plaque formation of HEp2 cells) (RSV): inhibit RSV infection

T20 (peptide)
Kd [3]: 1 to 2 nM

enfuvirtide [listing 2 of 2 here]
fusion inhibition (HIV-2 NIHZ): 3610.0 ng/mL
EC-50 (SIV isolate B670): 2313
Vn/Vo = 0.1 (SIV isolate B670): >10000
Vn/Vo = 0.1 (HIV-1 [4]; HIV-1 9320): 6000 ng/mL
Vn/Vo = 0.1 (HIV-1 [4]; HIV-1 301593 (subtype B, SI)): 3500 ng/mL
Vn/Vo = 0.1 (HIV-1 [4]; HIV-1 301714 (subtype B, NSI)): 8000 ng/mL
Vn/Vo = 0.1 (HIV-1 [4]; HIV-1 302056 (subtype B, NSI)): 800 ng/mL
Vn/Vo = 0.1 (HIV-1 [4]; HIV-1 302077 (subtype A)): 3300 ng/mL
Vn/Vo = 0.1 (HIV-1 [4]; HIV-1 302143 (SI)): 1600 ng/mL
Vn/Vo = 0.1 (HIV-1 [4]; HIV-1 G691-2 (AZT-R)): 1300 ng/mL
Vn/Vo = 0.1 (HIV-1 [4]; HIV-1 IIIB, dose required to reduce virus titer by one log): 250 ng/mL
Vn/Vo = 0.1 (HIV-1 [4]; HIV-1 pNL4-3): 3500 ng/mL
Vn/Vo = 0.1 (HIV-1 [4]; HIV-1 pNL4-3 SM (T20-R)): >10000 ng/mL
infectious virus in blood or lymph tissues (HIV-1 9320): not detectable
virus in peritoneal washes and spleen preparation (HIV-1 9320): detected
fusion inhibition (HIV-1 [5]; HIV-1 9320): 118.4 ng/mL
fusion inhibition (HIV-1 [5]; HIV-1 G691-2 (AZT-R)): 406.0 ng/mL
fusion inhibition (HIV-1 [5]; HIV-1 G762-3 (Pre-AZT)): 340.1 ng/mL
fusion inhibition (HIV-1 [5]; HIV-1 IIIB): 2.5 ng/mL
fusion inhibition (HIV-1 [5]; HIV-1 MN): 20.0 ng/mL
fusion inhibition (HIV-1 [5]; HIV-1 RF): 6.1 ng/mL
fusion inhibition (HIV-1 [5]; HIV-1 pNL4-3 SM (T20 Resistant)): 405.3 ng/mL
EC-50 (HIV-1 [2]; HIV-1 9320): 11
Vn/Vo = 0.1 (HIV-1 [2]; HIV-1 9320): 50
EC-50 (HIV-1 [2]; HIV-1 301714 (subtype B, NSI)): 1065
Vn/Vo = 0.1 (HIV-1 [2]; HIV-1 301714 (subtype B, NSI)): 4000
EC-50 (HIV-1 [2]; HIV-1 G691-2 (AZT-R)): 13
Vn/Vo = 0.1 (HIV-1 [2]; HIV-1 G691-2 (AZT-R)): 200
EC-50 (HIV-1 [2]; HIV-1 IIIB): 42
Vn/Vo = 0.1 (HIV-1 [2]; HIV-1 IIIB): 80
EC-50 (HIV-1 [2]; HIV-1 pNL4-3): 166
Vn/Vo = 0.1 (HIV-1 [2]; HIV-1 pNL4-3): 210
EC-50 (HIV-1 [2]; HIV-1 pNL4-3 SM (T20-R)): 90
Vn/Vo = 0.1 (HIV-1 [2]; HIV-1 pNL4-3 SM (T20-R)): 900
EC-50 (HIV-1 [2]; HIV-1 pNL4-3 SM (T20-R) Duke): 410
Vn/Vo = 0.1 (HIV-1 [2]; HIV-1 pNL4-3 SM (T20-R) Duke): 2600
EC-50 (HIV-1 [2]; HIV-1 pNL4-3 STM (T20/T649-R)): >50000
Vn/Vo = 0.1 (HIV-1 [2]; HIV-1 pNL4-3 STM (T20/T649-R)): >50000

Ac-VYPSDEYDASISQVNEEINQALAYIRKADELLENV-NH2 [T786, RSV core peptide]
ability to inhibit RSV infection (plaque formation of HEp2 cells) (RSV): able to inhibit RSV infection

Ac-WQEWEQKIQHWSYGLRPGWASLWEWF-NH2 [T1324]
half-life compared to the T1323 core peptide ([1]; CD male rats): significantly increased half-life

WQEWEQKITALLEQAQIQQEKNEYELQKLDKWASLWEWF (not fully specified (N-terminus, C-terminus)) [T1249 (Ac-[…]-NH2)]
Kd [6]: 1 to 2 nM
